# Active and inactive are the calls of the source. The calls are words filed in the database; no cut-off is given here.
# Experiments:
# Rattus norvegicus [1] = species: Rattus norvegicus; assay: Induction of wound healing in surgically-induced Albino Wistar rat wound model assessed as reduction in inflammatory cell infiltration at 10 uM measured after 11 days by H&E staining based analysis; assay type: functional; conditions: time 11.0 day
# Klebsiella pneumoniae [2] = assay: Antibiofilm activity against Klebsiella pneumoniae in the presence of Cl-; assay type: functional, organism-based
# Klebsiella pneumoniae [3] = assay: Antibiofilm activity against Klebsiella pneumoniae assessed as biofilm clearance incubated for 24 hrs by Congo red dye based fluorescence analysis; assay type: functional, organism-based
# Klebsiella pneumoniae [4] = assay: Antibiofilm activity against preformed biofilm in Klebsiella pneumoniae assessed as decrease in metabolic activity at MIC incubated overnight by MTT assay; assay type: functional, organism-based
# Escherichia coli [5] = assay: Antibacterial activity against Escherichia coli ATCC CRM-11229 assessed as inhibition of bacterial growth incubated for 24 hrs by CLSI protocol based microdilution method; assay type: functional
# Klebsiella pneumoniae [6] = assay: Antibiofilm activity against Klebsiella pneumoniae assessed as clearance of preformed biofilm at 0.5 times of MIC incubated for 24 hrs by CV staining based analysis relative to control; assay type: functional
# Klebsiella pneumoniae [7] = assay: Antibiofilm activity against preformed biofilm in Klebsiella pneumoniae assessed as decrease in cell viability at MIC incubated overnight by MTT assay relative to control; assay type: functional
# Staphylococcus aureus [8] = assay: Antibiofilm activity in methicillin-resistant Staphylococcus aureus assessed as biofilm clearance incubated for 24 hrs by Congo red dye based fluorescence analysis; assay type: functional, organism-based
# Klebsiella pneumoniae [9] = assay: Induction of morphological changes in carbapenem resistant Klebsiella pneumoniae ATCC BAA-1705 assessed as inhibition of cell division by measuring filamented cells at MIC concentration incubated for 60 mins by SEM analysis; assay type: functional, organism-based
# [10] = Stability in human serum assessed as intact peptide remaining at 1 mM measured after 8 hrs by HPLC analysis; assay type: ADME, cell-free; conditions: read-out: Stability
# Klebsiella pneumoniae [11] = assay: Induction of morphological changes in carbapenem resistant Klebsiella pneumoniae ATCC BAA-1705 at MIC concentration incubated for 6 hrs by SEM analysis; assay type: functional, organism-based
# Escherichia coli [12] = assay: Antibacterial activity against Escherichia coli assessed as inhibition of bacterial growth at 1.25 to 40 uM by microtiter plate reader analysis; assay type: functional, organism-based; conditions: dose 1.25-40 µM, time 0.5-8.5 hrs, TDE = time-dependent effect
# [13] = Cytotoxicity against human WI-38 cells assessed as cell viability at 25 uM incubated for 24 hrs by MTT assay relative to control; assay type: toxicity, cell-based; conditions: read-out: Activity
# Pseudomonas aeruginosa [14] = assay: Induction of morphological changes in Pseudomonas aeruginosa assessed as inhibition of cell division by measuring filamented cells at MIC concentration incubated for 60 mins by SEM analysis; assay type: functional, organism-based
# Cell membrane [15] = assay: Induction of cytoplasmic membrane depolarization in methicillin-resistant Staphylococcus aureus assessed as increase in fluorescence intensity at 0.5 to 1 times of MIC by DiSC3-5 dye based fluorescence method; assay type: subcellular
# Klebsiella pneumoniae [16] = assay: Antibiofilm activity against Klebsiella pneumoniae assessed as increase in dead cell proportion at 0.5 times of MIC incubated overnight by SYTO9/PI staining based fluorescence analysis; assay type: functional, organism-based
# Pseudomonas aeruginosa [17] = assay: Antibiofilm activity against Pseudomonas aeruginosa assessed as clearance of preformed biofilm at 1 times of MIC incubated for 24 hrs by CV staining based analysis relative to control; assay type: functional
# Klebsiella pneumoniae [18] = assay: Induction of morphological changes in carbapenem resistant Klebsiella pneumoniae ATCC BAA-1705 at MIC concentration incubated for 60 mins by SEM analysis; assay type: functional, organism-based
# Staphylococcus aureus [19] = assay: Antibacterial activity against methicillin resistant Staphylococcus aureus assessed as inhibition of bacterial growth at 1.25 to 40 uM incubated for 8 hrs by microtiter plate reader analysis; assay type: functional, organism-based; conditions: dose 1.25-40 µM
# Rattus norvegicus [20] = species: Rattus norvegicus; assay: Induction of wound healing in surgically-induced Albino Wistar rat wound model inoculated with methicillin-resistant Staphylococcus aureus assessed as reduction in inflammatory signs at 10 uM measured after 11 days by H&E staining based analysis; assay type: functional; conditions: time 11.0 day
# Cell membrane [21] = assay: Induction of cytoplasmic membrane depolarization in Klebsiella pneumoniae assessed as increase in fluorescence intensity at 0.5 to 1 times of MIC incubated for 22 mins by DiSC3-5 dye based fluorescence method; assay type: subcellular
# Cell membrane [22] = assay: Induction of outer membrane permeabilization in Escherichia coli at 0.5 to 1 times of MIC incubated for 5 to 20 mins by fluorescence based NPN uptake assay; assay type: subcellular; conditions: time 5-20 min
# Pseudomonas aeruginosa [23] = assay: Induction of morphological changes in Pseudomonas aeruginosa at MIC concentration incubated for 6 hrs by SEM analysis; assay type: functional, organism-based
# Rattus norvegicus [24] = species: Rattus norvegicus; assay: Induction of wound healing in surgically-induced Albino Wistar rat wound model assessed as densely packed epithelium containing keratinocytes at 10 uM measured after 11 days by H&E staining based analysis; assay type: functional; conditions: time 11.0 day
# Rattus norvegicus [25] = species: Rattus norvegicus; assay: Induction of wound healing in surgically-induced Albino Wistar rat wound model assessed as dense epithelial-tissue layers at 10 uM measured after 11 days by H&E staining based analysis; assay type: functional; conditions: time 11.0 day
# [26] = Stability in human serum assessed as intact peptide remaining at 1 mM measured after 4 hrs by HPLC analysis; assay type: ADME, cell-free; conditions: read-out: Stability
# Staphylococcus aureus [27] = assay: Antibiofilm activity in methicillin-resistant Staphylococcus aureus assessed as biofilm disintegration at 0.5 to 1 times of MIC incubated for 24 hrs by Congo red dye based fluorescence analysis; assay type: functional, organism-based
# PBMC = assay: Effect on cell viability in human PBMC assessed as increase in cell number by measuring rise in cell proliferation percentage at 12.5 uM measured after 12 hrs by lymphocyte proliferation assay (12 hrs incubated Rvb = 478.774%); assay type: toxicity, cell-based
# Klebsiella pneumoniae [28] = assay: Antibiofilm activity against Klebsiella pneumoniae in the presence of Na+; assay type: functional, organism-based
# Escherichia coli [29] = assay: Antibacterial activity against Escherichia coli assessed as inhibition of bacterial growth at 1.25 to 40 uM incubated for 8 hrs by microtiter plate reader analysis; assay type: functional, organism-based; conditions: dose 1.25-40 µM
# Rattus norvegicus [30] = species: Rattus norvegicus; assay: Induction of wound healing in surgically-induced Albino Wistar rat wound model inoculated with methicillin-resistant Staphylococcus aureus assessed as dense epithelial-tissue layers at 10 uM measured after 11 days by H&E staining based analysis; assay type: functional; conditions: time 11.0 day
# Pseudomonas aeruginosa [31] = assay: Induction of morphological changes in Pseudomonas aeruginosa at MIC concentration incubated for 60 mins by SEM analysis; assay type: functional, organism-based
# Staphylococcus aureus [32] = assay: Antibiofilm activity against methicillin-resistant Staphylococcus aureus assessed as biofilm eradication at 1 times of MIC incubated for 24 hrs by CV staining based analysis relative to control; assay type: functional
# Pseudomonas aeruginosa [33] = assay: Induction of morphological changes in Pseudomonas aeruginosa assessed as cellular destruction at MIC concentration incubated for 6 hrs by SEM analysis; assay type: functional, organism-based
# Staphylococcus aureus [34] = assay: Antibiofilm activity against methicillin-resistant Staphylococcus aureus in the presence of Na+; assay type: functional, organism-based
# Staphylococcus aureus [35] = assay: Induction of morphological changes in methicillin resistant Staphylococcus aureus assessed as decrease in legible cells at MIC concentration incubated for 6 hrs by AFM analysis; assay type: functional, organism-based
# Staphylococcus aureus [36] = assay: Antibiofilm activity against preformed biofilm in methicillin-resistant Staphylococcus aureus assessed as decrease in cell viability at MIC incubated overnight by MTT assay relative to control; assay type: functional
# [37] = Cytotoxicity against human MCF7 cells assessed as cell viability at 12.5 uM incubated for 24 hrs by MTT assay relative to control; assay type: toxicity, cell-based; conditions: read-out: Activity
# Lipopolysaccharide (LPS) = assay: Induction of Escherichia coli O111:B4 Lipopolysaccharide aggregate degradation at 40 uM incubated for 4 hrs by ESI-LC/MS analysis
# Escherichia coli [38] = assay: Antibacterial activity against Escherichia coli assessed as cell division block by measuring bacterial filamentation at 0.5 to 1 times of MIC incubated for 30 mins by SYTO9/PI staining based fluorescence microscopic analysis; assay type: functional, organism-based
substance,measurement,setting,value
H-FLPIIKWVKKFFWRWR-OH,Activity,Rattus norvegicus [1],Active
same,Activity,Klebsiella pneumoniae [2],Active
same,Activity,Klebsiella pneumoniae [3],Dose-Dependent Effect
same,Activity,Klebsiella pneumoniae [4],Active
same,MIC,Escherichia coli [5],3.5 µM
same,Activity,Klebsiella pneumoniae [6],~52%
same,Activity,Klebsiella pneumoniae [7],51.78%
same,Activity,Staphylococcus aureus [8],Dose-Dependent Effect
same,Activity,Klebsiella pneumoniae [9],Active
same,"remaining at 8 h, 1000 µM",[10],61%
same,Activity,Klebsiella pneumoniae [11],Active
same,Activity,Escherichia coli [12],Tde
same,"viability at 24 h, 25 µM",[13],88.3%
same,Activity,Pseudomonas aeruginosa [14],Active
same,Activity,Cell membrane [15],Active
same,Activity,Klebsiella pneumoniae [16],inactive
same,Activity,Pseudomonas aeruginosa [17],~56%
same,Activity,Klebsiella pneumoniae [18],Active
same,Activity,Staphylococcus aureus [19],Active
same,Activity,Rattus norvegicus [20],Active
same,Activity,Cell membrane [21],Active
same,Activity,Cell membrane [22],Active
same,Activity,Pseudomonas aeruginosa [23],Active
same,Activity,Rattus norvegicus [24],Active
same,Activity,Rattus norvegicus [25],Active
same,"remaining at 4 h, 1000 µM",[26],82.6%
same,Activity,Staphylococcus aureus [27],Active
same,Activity,PBMC,55.188%
same,Activity,Klebsiella pneumoniae [28],Active
same,Activity,Escherichia coli [29],Active
same,Activity,Rattus norvegicus [30],Active
same,Activity,Pseudomonas aeruginosa [31],Active
same,Activity,Staphylococcus aureus [32],<=87.6%
same,Activity,Pseudomonas aeruginosa [33],Active
same,Activity,Staphylococcus aureus [34],Active
same,Activity,Staphylococcus aureus [35],Active
same,Activity,Staphylococcus aureus [36],33.89%
same,"viability at 24 h, 12.5 µM",[37],77%
same,Activity,Lipopolysaccharide (LPS),Active
same,Activity,Escherichia coli [38],Active

# Source: ChEMBL document CHEMBL5360649, “Potential Broad-Spectrum Antimicrobial, Wound Healing, and Disinfectant Cationic Peptide Crafted from Snake Venom” (J Med Chem, 2023)
